Laboratory results taken from patent US6890513B2, “Metal-carborane complexes for radioimaging and radiotherapy and methods for their preparation” (McMaster University, priority 2001, dated 2005).

Experiment: cysteine challenge experiment (stability of Re and Tc carborane complexes)
Type: physicochemical
Conditions: thousand fold excess of cysteine, 1:1 (v/v) phosphate buffer (pH=7.4)-ethanol, 37° C., over 24 hours
Protocol: The stability of the Re and Tc carborane complexes were evaluated using a cysteine challenge experiment.^21 Compound 1, for example, was incubated with a thousand fold excess of cysteine in a 1:1 (v/v) phosphate buffer (pH=7.4)-ethanol mixture at 37° C. over 24 hours.

[NEt4][Re(CO)3(η^5-7,8-C2B9H11)] [Compound 1]
stability (decomposition) in cysteine challenge by HPLC, FTIR and electrospray mass spectrometry: no signs of decomposition
